Results on one molecule are retold here after article PMC10994559 (PLOS Neglected Tropical Diseases, 2024).

The test system of one assay is Plasmodium falciparum. More on the design: method as in PMID 35749989. Conditions: cited from earlier work.
In a further assay the test system is E. histolytica. The assay is described as follows: E. histolytica viability, ATP luminescence (Cell titer glo). Type of assay: cell-based, Entamoeba histolytica. Particulars: Entamoeba histolytica, 48 h. Summed up:
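E. histolytica strain B2-5 at 2.5x10^4 cells/ml was exposed to compound for 48 h at 37 °C under anaerobic conditions, with viability read as ATP luminescence (CellTiter-Glo). The primary screen used 25 μM in triplicate, and follow-up potency runs used 9–16-point ranges spanning 0.01–100 μM.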
(In general: In ATP-based viability assays light output follows the ATP content of the culture.)

The test system of the next assay is Plasmodium berghei ANKA. More on the design: method as in PMID 35749989. Particulars: cited from earlier work.
The next assay has as its system T. brucei brucei BSF. The experiment in a line: T. brucei BSF viability, resazurin reduction. Type of assay: cell-based, Trypanosoma brucei brucei. Conditions: Trypanosoma brucei.

Usually EC50 stands for the midpoint of the concentration-response curve. In general, viability refers to the share of living cells, or the viability signal relative to a control.

Where “and” joins values, the source holds several entries; their conditions need not be identical. Equal values may be shown once.

Consider `CC[C@@H](C)[C@H](c1nc2ccccc2n1Cc1cn(-c2ccc(C(F)(F)F)cc2)nn1)N1C(=O)c2ccccc2C1=O` [PHT-39], for which the “Mitochondrial membrane potential, P. falciparum trophozoites” value in the assay on Plasmodium falciparum (3 h exposure at EC50 0.64 μM) is listed as “collapse of the mitochondrial membrane potential”. Further, the EC50 with Plasmodium falciparum (read-out: EC50 Plasmodium falciparum intraerythrocyte stages) was 640 nM and 600 nM; in the assay with T. brucei brucei BSF (read-out: EC50 T. brucei BSF, dose response, triplicate, ± SD (Table 2) / ± SE (S3 Table)), 3900 ± 1700 nM. For the same molecule, the viability at 2.5 µM with E. histolytica (read-out: Residual viability, E.histolytica (2.5 µM)) was 81.6 ± 12.6%; in the assay with T. brucei brucei BSF (72 h, read-out: Residual viability, T.brucei (2.5 µM), BSF, 2.5 µM, 72 h), 64.9 ± 7.25%. Besides, the viability at 25 µM in the assay with E. histolytica (read-out: Residual viability, E.histolytica (25 µM)) was 44.5 ± 9.9%; with T. brucei brucei BSF (72 h, read-out: Residual viability, T.brucei (25 µM), BSF, 25 µM, 72 h), 2.85 ± 2.88%. Moreover, the “Parasitemia and host survival, P. berghei ANKA infection model” value in the assay on Plasmodium berghei ANKA is “considerable decrease in parasitemia and significantly extended host survival”.
